These results are taken from PubChem BioAssay AID179 (DTP/NCI, 2004).

Each structure is given as a SMILES string. Calls of active or inactive are those of the source.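 How the source made its calls: active means compounds giving half or more protection of infected cells from virus-caused growth loss, again on retest; inactive means the rest.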 Where a SMILES comes first, the peptide text is derived from it. Where only a bound is given, the exact number is not on record here.

The experiment has as its system CEM cells HIV-1 protection, formazan growth assay. The experiment is described as follows: NCI AIDS Antiviral Assay. As to conditions: for IC50: measured here: growth of uninfected CEM cells. The method, boiled down:
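Protection of CEM cells against HIV-1 measured as cell growth via soluble formazan read-out, with five concentrations tested on both infected and uninfected cells; failure to protect may reflect toxicity.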

The EC50 is the concentration giving half of the maximal effect. A word on the IC50: it is the concentration needed to halve the response being measured. A high value points to weaker potency in that assay. As for `O=C(NCCC[P+](c1ccccc1)(c1ccccc1)c1ccccc1)OCc1ccccc1`, the EC50 is above 200 µM and the IC50 was 1.58 µM.
Regarding `CN=C1SC(=Nc2ccc(N(C)C)cc2)N1C`, the result was inactive.
For `O=c1c2cc(S(=O)(=O)Nc3c(Cl)cccc3Cl)ccc2ncn1NS(=O)(=O)c1ccc2ccccc2c1`, the EC50 is above 200 µM and the IC50 is 37.2 µM.
For `c1ccc2c(c1)CCCN1CCc3ccccc3C21` (stereo unspecified), in that order: above 200 µM and 51.3 µM.
For the compound `O=c1[nH]cc(N=Nc2ccc(S(=O)(=O)Nc3ccccn3)cc2)cc1O`, the EC50 was above 200 µM and the IC50 came out at 87.1 µM.
Consider `O=C1Cc2ccccc2N1/N=C\c1ccc([N+](=O)[O-])cc1`, for which the EC50 is above 67.6 µM and the IC50 was above 67.6 µM.
On to `NCC1Nc2ccccc2[C@@H](O)C1O` (stereo partly specified), for which the EC50 was above 933 µM and the IC50 is above 933 µM.
Turning to `O=[N+]([O-])c1ccc2nc(/C=C(\O)c3ccccc3)c(NC34CC5CC(CC(C5)C3)C4)nc2c1`, the EC50 is above 200 µM and the IC50 amounted to 182 µM.
For `CC(C)N1CCC2(CC1)NNc1ncccc1-n1cccc12`, in that order: above 676 µM and 355 µM.
For the compound `CC1(C)OC2CC3CC(OC3=O)C2O1` (stereo unspecified), the EC50 is above 832 µM and the IC50 is above 832 µM.
Turning to `Cc1cc(-c2ccco2)oc(=O)c1NC(=O)c1ccccc1`, the EC50 was above 200 µM and the IC50 was determined as 25.1 µM.
For `CSc1nnnc2ccccc12`, in that order: above 200 µM and 145 µM.
For `O=C1[C@@H]2C(c3ccccc3)=NO[C@@H]2C(=O)N1c1ccc(Cc2ccc(N3C(=O)[C@H]4C(c5ccccc5)=NO[C@H]4C3=O)cc2)cc1`, in that order: above 31.6 µM and above 31.6 µM.
For `CSc1nc(SC)c2nc(Nc3ccccc3)sc2n1`, in that order: above 200 µM and 6.17 µM.
For `COC(=O)c1cc(C(=CCCN=[N+]=[N-])c2cc(Br)c(OC)c(C(=O)OC)c2)cc(Br)c1OC`, the EC50 was 3.24 µM and the 50% inhibitory concentration (IC50) turned out to be 93.3 µM.
As to `NC1=NN(c2ccccc2)C(=O)C1C(=O)C(=O)Nc1nccs1` (stereo unspecified), the EC50 was above 79.4 µM and the IC50 is above 79.4 µM.
In the case of `[N-]=[N+]=NC[C@H]1OCO[C@H](CN=[N+]=[N-])[C@@H](OCCOCCCl)[C@@H]1OCCOCCCl`, the EC50 is above 200 µM and the IC50 was 148 µM.
For `Cc1cccc(NP2(=O)NCCCN2)c1`, in that order: 316 µM and 398 µM.
For `O=C1OCC(O)=C1C(c1ccc(Cl)cc1)c1cc2c(cc1O)OCO2` (stereo unspecified), in that order: above 200 µM and above 200 µM.
In the case of `Cc1[nH]c(=O)nc2c1C(NCCCN(C)C)c1cc(Cl)ccc1N2` (stereo unspecified), the EC50 was above 200 µM and the IC50 is 8.91 µM.
For `O=[N+]([O-])c1cc(Br)cc2c1[nH]c1nc3ccc(C(F)(F)F)cc3nc12`, in that order: above 45.7 µM and 8.32 µM.
Regarding `C/C(=N/NC(=S)Nc1ccccc1Cl)c1ccccn1`, the EC50 was above 0.2 µM and the IC50 was 0.0372 µM.
For the compound `Cc1cc(-n2c(/C=C/c3ccc(Cl)cc3)nc3cc(Cl)ccc3c2=O)on1`, the EC50 was above 50.1 µM and the IC50 was above 50.1 µM.
`O=c1cc(-c2ccccc2)oc2cc(OCCCCCCCCCCOc3ccc4c(=O)cc(-c5ccccc5)oc4c3)ccc12`: the EC50 was above 1.7 µM and the 50% inhibitory concentration (IC50) was above 1.7 µM.
`O=C1CN(/C=C(/c2ccc(Cl)cc2)S(=O)(=O)Cc2ccc(Cl)cc2)C(=S)N1`: the EC50 was above 200 µM and the IC50 was above 200 µM.
For `O=C(O)Cn1[se]c2ccccc2c1=O`, the EC50 was 46.8 µM and the IC50 came to 120 µM.
With `Nc1nc(N)c(N=O)c(Nc2ccc(Br)c(Br)c2)n1`, the outcome was inactive.
Turning to `COc1ccc(/C=C2\CCC(C)C3=C(c4ccc(OC)c(OC)c4)C(C#N)=C(N)OC32)cc1OC` (stereo unspecified), the EC50 was above 200 µM and the IC50 worked out at 8.32 µM.
As to `COC(=O)C12C3C4(C(=O)OC)C1C1(C(=O)OC)C2C3(C(=O)OC)C41C(=O)N(C(C)C)C(C)C` (stereo unspecified), the EC50 is above 200 µM and the IC50 was above 200 µM.
Regarding `CCCc1cc(=O)oc2c3c(cc(OC(C)CC)c12)O[C@H](C)[C@@H](C)[C@@H]3O` (stereo partly specified), the EC50 is 3.63 µM and the IC50 is 37.2 µM.
For `CCC(C)C(NC(=O)C(N)CCCCN)C(=O)NC(CCC(=O)O)C(=O)NC(CO)C(=O)NC(C)C(=O)NC(C(=O)NC(CC(N)=O)C(=O)NC(CC(C)C)C(=O)NC(CO)C(=O)NC(CCC(N)=O)C(=O)O)C(C)O` (stereo unspecified) (H-KIESATNLSQ-OH; configuration not given here), in that order: above 57.5 µM and above 57.5 µM.
For `CCSC(=O)n1ncc2cc(Cl)ccc21`, in that order: above 200 µM and 30.2 µM.
For `CCN(CC)CCCn1c(=O)c2ccccc2n2c3c(=O)n(C)c(=O)n(C)c3nc12`, in that order: above 200 µM and 1.05 µM.
As for `CN=c1nc2n3c(cccc3n1)NC(C)=N2`, the EC50 is above 100 µM and the IC50 is above 100 µM.
Consider `O=C1OC(C2OC(=O)c3cc(O)c(O)c(O)c3-c3c(O)c(O)c4oc(=O)c5c(c(O)c(O)c6oc(=O)c3c4c65)-c3c(cc(O)c(O)c3O)C(=O)OCC2O)C2OC(=O)c3c(c(O)c(O)c(O)c3C2O)-c2c1cc(O)c(O)c2O` (stereo unspecified), for which the EC50 was 1.62 µM and the IC50 was 12 µM.
As for `CCCCN(CCCC)C(=O)C(=O)CC(=O)c1ccc(Br)cc1`, the outcome was inactive.
For `Cn1c(COc2ccc(/C=N/Nc3ccnc(N/N=C/c4ccc(OCc5c[n+]6ccccc6n5C)cc4)n3)cc2)c[n+]2ccccc12`, the EC50 is 3.02 µM and the IC50 worked out at 3.24 µM.
With `Cc1[nH]n(C(=O)c2ccc(Cl)cc2)c(=O)c1/C=C1\C(O)=CC(=O)c2ccccc21`, the EC50 was above 12.9 µM and the IC50 is above 12.9 µM.
For `OCC1OC(c2cccc3cc(O)c(O)cc23)CC1O` (stereo unspecified), the EC50 is above 200 µM and the IC50 was found to be 51.3 µM.
For `COC1(C)C(=O)N(C)C1c1ccccc1` (stereo unspecified), in that order: above 200 µM and above 200 µM.
For `CC1=C(C(=O)NNS(=O)(=O)c2ccc(C)cc2)CC(C(=O)NNS(=O)(=O)c2ccc(C)cc2)=C(C)N1`, in that order: above 13.5 µM and above 13.5 µM.
In the case of `Nc1ccc(Sc2c3ccccc3nc3ccccc23)cc1`, the EC50 is above 17.4 µM and the IC50 came out at 9.55 µM.
Consider `CCCCCCCCN(CCCCCCCC)/N=C/c1c2c(O)c3c(O)c(C)c4c(c3c1O)C(=O)C(C)(O/C=C/C(OC)C(C)C(OC(C)=O)C(C)C(O)C(C)C(O)C(C)/C=C/C=C(C)C(=O)N2)O4` (stereo unspecified), for which the result was inactive.
Turning to `Cn1c(-c2cccs2)cc(-c2cccs2)c1-c1cccs1`, the EC50 was above 200 µM and the IC50 was 33.9 µM.
Take `Brc1ccc(N=c2nc3ccccn3n3nc(-c4ccccc4)cc23)cc1`: the EC50 is above 24 µM and the IC50 was above 24 µM.
Take `COC1=CC(=O)c2ccccc2C1(C)C1=NC(C)(C)CO1` (stereo unspecified): the EC50 was above 631 µM and the IC50 is above 631 µM.
As for `CCOC(=O)CC(=O)Nc1cccc2[nH]cnc12`, the EC50 is above 200 µM and the IC50 is above 200 µM.
For the compound `CN(/N=C\c1ccc2ccccc2c1)C1=NCCN1`, the EC50 is above 200 µM and the concentration for half-maximal inhibition (IC50) worked out at 22.9 µM.
For `Cc1cccc2c1CC1(Cc3c(C)cccc3C1=O)C2=O`, in that order: above 200 µM and above 200 µM.
Turning to `CC1C(=NO)C(C)C(c2ccccc2)N(N=O)C1c1ccccc1` (stereo unspecified), the EC50 is above 200 µM and the IC50 is above 200 µM.
Take `S=C(Nc1ccc(N=Nc2ccccc2)cc1)SCc1ccc2c(c1)OCO2`: the EC50 is above 200 µM and the IC50 amounted to 10.7 µM.
In the case of `COc1ccc2cc1Oc1ccc(cc1)CC1c3c(cc(OC)c4c3Oc3cc5c(cc3O4)CCN[C@@H]5C2)CCN1C` (stereo partly specified), the result was inactive.
With `Cn1cnc([N+](=O)[O-])c1Sc1nc2ccccc2[nH]1`, the EC50 was above 19.1 µM and the IC50 stood at 6.92 µM.
As for `CCCCCCCCCCCCOC1OC(CO)C(O)C(O)C1O` (stereo unspecified), the EC50 was above 85.1 µM and the concentration for half-maximal inhibition (IC50) stood at 38 µM.
For `Cc1ccc(C2=NN(C)COC2C(F)(F)F)cc1` (stereo unspecified), in that order: above 28.2 µM and above 28.2 µM.
In the case of `COC(=O)C(/C(=N/NC(=O)c1ccncc1)C(=O)Nc1ccccc1OC)c1nc2ccc(Cl)cc2[nH]c1=O` (stereo unspecified), the EC50 was above 91.2 µM and the IC50 is above 91.2 µM.
Take `O=C1CC[C@H]2[C@@H]3N1c1ccccc1[C@@]31CCN3C/C(=C/CBr)[C@@H]2C[C@H]31`: the EC50 is above 75.9 µM and the IC50 was above 75.9 µM.
With `CC(=O)NS(=O)(=O)c1ccc(N=Cc2cc(Cl)cc(Cl)c2O)cc1`, the EC50 is above 200 µM and the IC50 was 19.5 µM.
On to `N#Cc1nsnc1-c1nc(-c2nsnc2C#N)nc(-c2nsnc2C#N)n1`, for which the EC50 is above 200 µM and the IC50 stood at 141 µM.
For `O=[N+]([O-])c1cc(Cl)cc2cc(Cl)cnc12`, in that order: above 200 µM and above 200 µM.
For `O=C(O)/C=C\CCCCCCCCC(=O)O`, in that order: above 794 µM and above 794 µM.
For `CC[C@]1(Cc2ccc(OC)c(OC)c2)C=[N+]([O-])O[C@H](OC2CCCC2(c2ccccc2)c2ccccc2)[C@@H]1OC(=O)c1ccccc1` (stereo partly specified), the EC50 was above 200 µM and the IC50 stood at 1.07 µM.
On to `COc1ccc(NS(=O)(=O)c2ccc(NC(NC(=O)CC(C)C)(C(F)(F)F)C(F)(F)F)cc2)nn1`, for which the EC50 was above 200 µM and the IC50 was 191 µM.
With `COC(=O)CCC(=O)Nc1cc(Cl)ccc1Cl`, the EC50 is above 468 µM and the IC50 is above 468 µM.
With `COC(=O)/C=C/c1cnc2c(c1)oc(=O)n2C`, the EC50 is above 200 µM and the IC50 was above 200 µM.
`CCN1CCC(C)OP1(=O)Cc1ccccc1` (stereo unspecified): the EC50 was above 200 µM and the IC50 was above 200 µM.
On to `CC(=O)CC1(C)OC(N)=C(C#N)C1(C#N)C#N` (stereo unspecified), for which the EC50 is above 200 µM and the IC50 was found to be 162 µM.
For `CC1(C)N=C(C(N)=O)c2ncn(CCO)c2N1`, in that order: above 200 µM and above 200 µM.
